Experimental data from the supplement of paper PMC10307832.

Tests used:
Assay in all cases: relative viability (nuclei count vs DMSO), 5 days (fraction); higher = more cells survive
[1] = compound: C[C@]1(O)C[C@@H](c2nc(-c3ccc4ccc(-c5ccccc5)nc4c3)c3c(N)nccn32)C1 [Linsitinib] + O=C(CCCCCCC(=O)Nc1ccccc1)NO [Vorinostat] (partner 1 µM)
Procedure, shortened: (§1)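 Relative viability divides the nuclei count in treated wells by that in vehicle wells. Lung cancer cell lines were seeded in 1536-well plates, dosed by pin tool the next day, and fixed and stained after 5 days in one step with final 0.05% Triton X-100, 1% formaldehyde and 1 ug/ml Hoechst. Dosing was a single drug or a fixed anchor-drug dose plus five library-drug doses (not always all listed) in √10 steps, and values are medians of duplicate plates imaged at 4×.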

[2] = compound: C[C@]1(O)C[C@@H](c2nc(-c3ccc4ccc(-c5ccccc5)nc4c3)c3c(N)nccn32)C1 [Linsitinib] + COc1cc2c(Oc3ccc(NC(=O)C4(C(=O)Nc5ccc(F)cc5)CC4)cc3F)ccnc2cc1OCCCN1CCOCC1 [Foretinib] (partner 0.25 µM)
Procedure, shortened: as §1

[3] = compound: Cc1ccc(C(=O)N(CCCN)[C@@H](c2nc3cc(Cl)ccc3c(=O)n2Cc2ccccc2)C(C)C)cc1 [Ispinesib] + C[C@@H](Oc1cc(-c2cnn(C3CCNCC3)c2)cnc1N)c1c(Cl)ccc(F)c1Cl [Crizotinib] (partner 1 µM)
Procedure, shortened: as §1

[4] = compound: Cc1ccc(C(=O)N(CCCN)[C@@H](c2nc3cc(Cl)ccc3c(=O)n2Cc2ccccc2)C(C)C)cc1 [Ispinesib] + CS(=O)(=O)N1CCN(Cc2cc3nc(-c4cccc5[nH]ncc45)nc(N4CCOCC4)c3s2)CC1 [Pictilisib] (partner 1 µM)
Procedure, shortened: as §1

A-427
relative viability ([1]; first compound 0.01 µM): 0.859 | relative viability ([1]; first compound 0.03162 µM): 0.905 | relative viability ([1]; first compound 0.1 µM): 0.892 | relative viability ([1]; first compound 1 µM): 0.808 | relative viability ([2]; first compound 0.01 µM): 1.12 | relative viability ([2]; first compound 0.03162 µM): 1.15 | relative viability ([2]; first compound 0.1 µM): 1.19 | relative viability ([2]; first compound 1 µM): 1.11 | relative viability ([3]; first compound 0.001 µM): 0.886 | relative viability ([3]; first compound 0.003162 µM): 1.23 | relative viability ([3]; first compound 0.01 µM): 0.968 | relative viability ([3]; first compound 0.03162 µM): 0.887 | relative viability ([3]; first compound 0.1 µM): 0.369 | relative viability ([4]; first compound 0.001 µM): 0.805 | relative viability ([4]; first compound 0.003162 µM): 0.829 | relative viability ([4]; first compound 0.01 µM): 0.891 | relative viability ([4]; first compound 0.03162 µM): 0.388 | relative viability ([4]; first compound 0.1 µM): 0.177

NCI-H520
relative viability ([1]; first compound 0.01 µM): 0.802 | relative viability ([1]; first compound 0.03162 µM): 0.689 | relative viability ([1]; first compound 0.1 µM): 0.722 | relative viability ([1]; first compound 1 µM): 0.695 | relative viability ([2]; first compound 0.01 µM): 0.704 | relative viability ([2]; first compound 0.03162 µM): 0.529 | relative viability ([2]; first compound 0.1 µM): 0.988 | relative viability ([2]; first compound 1 µM): 0.952 | relative viability ([3]; first compound 0.001 µM): 0.783 | relative viability ([3]; first compound 0.003162 µM): 0.631 | relative viability ([3]; first compound 0.01 µM): 0.781 | relative viability ([3]; first compound 0.03162 µM): 0.346 | relative viability ([3]; first compound 0.1 µM): 0.438 | relative viability ([4]; first compound 0.001 µM): 0.353 | relative viability ([4]; first compound 0.003162 µM): 0.276 | relative viability ([4]; first compound 0.01 µM): 0.295 | relative viability ([4]; first compound 0.03162 µM): 0.181 | relative viability ([4]; first compound 0.1 µM): 0.172

NCI-H650
relative viability ([1]; first compound 0.01 µM): 0.438 | relative viability ([1]; first compound 0.03162 µM): 0.359 | relative viability ([1]; first compound 0.1 µM): 0.432 | relative viability ([1]; first compound 1 µM): 0.394 | relative viability ([2]; first compound 0.01 µM): 1.04 | relative viability ([2]; first compound 0.03162 µM): 1.08 | relative viability ([2]; first compound 0.1 µM): 0.969 | relative viability ([2]; first compound 0.3162 µM): 0.782 | relative viability ([2]; first compound 1 µM): 0.966 | relative viability ([3]; first compound 0.001 µM): 0.526 | relative viability ([3]; first compound 0.003162 µM): 0.669 | relative viability ([3]; first compound 0.01 µM): 0.826 | relative viability ([3]; first compound 0.03162 µM): 0.595 | relative viability ([3]; first compound 0.1 µM): 0.404 | relative viability ([4]; first compound 0.001 µM): 0.861 | relative viability ([4]; first compound 0.003162 µM): 0.99 | relative viability ([4]; first compound 0.01 µM): 0.868 | relative viability ([4]; first compound 0.03162 µM): 0.827 | relative viability ([4]; first compound 0.1 µM): 0.402

COR-L 105
relative viability ([1]; first compound 0.01 µM): 0.749 | relative viability ([1]; first compound 0.03162 µM): 0.872 | relative viability ([1]; first compound 0.1 µM): 0.712 | relative viability ([1]; first compound 0.3162 µM): 0.389 | relative viability ([1]; first compound 1 µM): 0.609 | relative viability ([2]; first compound 0.01 µM): 0.969 | relative viability ([2]; first compound 0.03162 µM): 1.03 | relative viability ([2]; first compound 0.1 µM): 1.08 | relative viability ([2]; first compound 0.3162 µM): 0.956 | relative viability ([2]; first compound 1 µM): 0.908 | relative viability ([3]; first compound 0.001 µM): 0.721 | relative viability ([3]; first compound 0.003162 µM): 0.759 | relative viability ([3]; first compound 0.01 µM): 0.47 | relative viability ([3]; first compound 0.03162 µM): 0.263 | relative viability ([3]; first compound 0.1 µM): 0.411 | relative viability ([4]; first compound 0.001 µM): 0.448 | relative viability ([4]; first compound 0.003162 µM): 0.393 | relative viability ([4]; first compound 0.01 µM): 0.257 | relative viability ([4]; first compound 0.03162 µM): 0.243 | relative viability ([4]; first compound 0.1 µM): 0.258

NCI-H1755
relative viability ([1]; first compound 0.01 µM): 0.741 | relative viability ([1]; first compound 0.03162 µM): 0.773 | relative viability ([1]; first compound 0.1 µM): 0.821 | relative viability ([1]; first compound 0.3162 µM): 0.58 | relative viability ([1]; first compound 1 µM): 0.727 | relative viability ([2]; first compound 0.01 µM): 0.864 | relative viability ([2]; first compound 0.03162 µM): 0.892 | relative viability ([2]; first compound 0.1 µM): 0.956 | relative viability ([2]; first compound 0.3162 µM): 0.865 | relative viability ([2]; first compound 1 µM): 0.8 | relative viability ([3]; first compound 0.001 µM): 0.881 | relative viability ([3]; first compound 0.003162 µM): 0.622 | relative viability ([3]; first compound 0.01 µM): 0.945 | relative viability ([3]; first compound 0.03162 µM): 0.864 | relative viability ([3]; first compound 0.1 µM): 0.461 | relative viability ([4]; first compound 0.001 µM): 0.403 | relative viability ([4]; first compound 0.003162 µM): 0.464 | relative viability ([4]; first compound 0.01 µM): 0.534 | relative viability ([4]; first compound 0.03162 µM): 0.22 | relative viability ([4]; first compound 0.1 µM): 0.194

NCI-H2085
relative viability ([1]; first compound 0.01 µM): 0.778 | relative viability ([1]; first compound 0.03162 µM): 0.707 | relative viability ([1]; first compound 0.1 µM): 0.791 | relative viability ([1]; first compound 0.3162 µM): 0.8 | relative viability ([1]; first compound 1 µM): 0.681 | relative viability ([2]; first compound 0.01 µM): 0.883 | relative viability ([2]; first compound 0.03162 µM): 0.889 | relative viability ([2]; first compound 0.1 µM): 0.931 | relative viability ([2]; first compound 0.3162 µM): 0.891 | relative viability ([2]; first compound 1 µM): 0.898 | relative viability ([3]; first compound 0.001 µM): 0.931 | relative viability ([3]; first compound 0.003162 µM): 0.973 | relative viability ([3]; first compound 0.01 µM): 0.701 | relative viability ([3]; first compound 0.03162 µM): 0.777 | relative viability ([3]; first compound 0.1 µM): 0.56 | relative viability ([4]; first compound 0.001 µM): 0.485 | relative viability ([4]; first compound 0.003162 µM): 0.406 | relative viability ([4]; first compound 0.01 µM): 0.504 | relative viability ([4]; first compound 0.03162 µM): 0.43 | relative viability ([4]; first compound 0.1 µM): 0.307

NCI-H2023
relative viability ([1]; first compound 0.01 µM): 0.71 | relative viability ([1]; first compound 0.03162 µM): 0.327 | relative viability ([1]; first compound 0.1 µM): 0.903 | relative viability ([1]; first compound 0.3162 µM): 0.196 | relative viability ([1]; first compound 1 µM): 0.398 | relative viability ([2]; first compound 0.01 µM): 0.864 | relative viability ([2]; first compound 0.03162 µM): 0.546 | relative viability ([2]; first compound 0.1 µM): 0.835 | relative viability ([2]; first compound 0.3162 µM): 0.512 | relative viability ([2]; first compound 1 µM): 0.515 | relative viability ([3]; first compound 0.001 µM): 0.616 | relative viability ([3]; first compound 0.003162 µM): 0.657 | relative viability ([3]; first compound 0.01 µM): 0.598 | relative viability ([3]; first compound 0.03162 µM): 0.457 | relative viability ([3]; first compound 0.1 µM): 0.13 | relative viability ([4]; first compound 0.001 µM): 0.271 | relative viability ([4]; first compound 0.003162 µM): 0.237 | relative viability ([4]; first compound 0.01 µM): 0.273 | relative viability ([4]; first compound 0.03162 µM): 0.0793 | relative viability ([4]; first compound 0.1 µM): 0.125

HOP-62
relative viability ([1]; first compound 0.01 µM): 0.699 | relative viability ([1]; first compound 0.03162 µM): 0.57 | relative viability ([1]; first compound 0.1 µM): 0.682 | relative viability ([1]; first compound 1 µM): 0.36 | relative viability ([2]; first compound 0.01 µM): 1.09 | relative viability ([2]; first compound 0.03162 µM): 1.05 | relative viability ([2]; first compound 0.1 µM): 1.06 | relative viability ([2]; first compound 1 µM): 1.16 | relative viability ([3]; first compound 0.001 µM): 0.966 | relative viability ([3]; first compound 0.003162 µM): 1.04 | relative viability ([3]; first compound 0.01 µM): 0.792 | relative viability ([3]; first compound 0.03162 µM): 0.976 | relative viability ([3]; first compound 0.1 µM): 0.918 | relative viability ([4]; first compound 0.001 µM): 0.568 | relative viability ([4]; first compound 0.003162 µM): 0.784 | relative viability ([4]; first compound 0.01 µM): 0.785 | relative viability ([4]; first compound 0.03162 µM): 0.306 | relative viability ([4]; first compound 0.1 µM): 0.148
